In US20240384268A1, “Oligonucleotides” (Hudson Institute of Medical Research, priority 2021, published 2024):
“Also recorded” adds a separate entry of the source. In the oligonucleotide strings, read from the 5' end, every base follows the letter of its sugar. An asterisk marks phosphorothioate; unmarked linkages are phosphodiester. Other units and linkages are bracketed, terminal groups are in braces. A string of capitals states the bases alone. d = 2'-deoxy (DNA); m = 2'-O-methyl

Key:
TLR7 = molecular target: T1, TLR7 (Mus musculus, UniProt P58681); experiment: B-406-AS ssRNA-induced TNFα in primary BMDMs; details: WT primary BMDMs; 100 nM ASO 1 h; 250 nM B-406-AS RNA overnight; vs dC20 co-treatment
T1 sequence (P58681 27-1050): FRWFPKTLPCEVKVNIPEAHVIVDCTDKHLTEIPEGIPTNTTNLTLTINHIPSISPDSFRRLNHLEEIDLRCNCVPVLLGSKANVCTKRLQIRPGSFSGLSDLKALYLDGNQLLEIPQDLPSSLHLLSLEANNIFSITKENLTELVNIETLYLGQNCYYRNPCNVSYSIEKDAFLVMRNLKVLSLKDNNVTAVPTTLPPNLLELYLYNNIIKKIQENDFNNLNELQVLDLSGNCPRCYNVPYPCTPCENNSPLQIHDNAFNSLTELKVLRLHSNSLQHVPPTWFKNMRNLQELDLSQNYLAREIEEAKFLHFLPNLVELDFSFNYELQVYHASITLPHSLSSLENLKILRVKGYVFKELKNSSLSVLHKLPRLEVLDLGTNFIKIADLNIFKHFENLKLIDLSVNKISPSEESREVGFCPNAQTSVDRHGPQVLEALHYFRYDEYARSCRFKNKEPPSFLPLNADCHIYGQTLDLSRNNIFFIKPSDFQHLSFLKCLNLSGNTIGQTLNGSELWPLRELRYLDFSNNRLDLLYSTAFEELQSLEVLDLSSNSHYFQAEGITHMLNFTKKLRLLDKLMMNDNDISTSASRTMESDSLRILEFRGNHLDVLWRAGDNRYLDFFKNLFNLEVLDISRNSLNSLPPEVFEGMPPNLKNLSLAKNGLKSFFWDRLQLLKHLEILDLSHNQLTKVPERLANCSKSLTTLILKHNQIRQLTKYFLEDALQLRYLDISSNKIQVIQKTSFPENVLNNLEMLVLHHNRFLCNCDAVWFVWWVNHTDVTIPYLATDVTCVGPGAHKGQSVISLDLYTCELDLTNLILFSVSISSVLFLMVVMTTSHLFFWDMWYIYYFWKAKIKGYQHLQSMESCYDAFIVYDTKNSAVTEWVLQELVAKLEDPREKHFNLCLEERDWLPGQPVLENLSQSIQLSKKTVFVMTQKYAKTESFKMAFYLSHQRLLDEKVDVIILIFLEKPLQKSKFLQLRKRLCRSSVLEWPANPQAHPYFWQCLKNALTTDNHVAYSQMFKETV

STING = molecular target: T2, STING (Homo sapiens, UniProt Q86WV6); experiment: STING agonist (GSK, DMXAA)-driven IP-10 in MG-63 cells and immortalised mouse BMDMs; assay type: cell-based; details: C2-Mut1 500 nM 6 h (GSK 100 nM, DMXAA 50 μg/ml); MOE/LNA ASOs 1 mM as printed (GSK, MG-63)
T2 construct: host or cells: MG-63 (human osteosarcoma)

TLR2/1 = molecular target: T3, TLR2/1 (Mus musculus, UniProt Q9EPQ1+Q9QUN7); experiment: PAM3CSK4-driven TNF-α in immortalised mouse BMDMs; assay type: cell-based; details: iBMDMs; 500 nM ASO 6 h; PAM3C 100 ng/ml
T3 construct: endogenous in cells; host or cells: immortalised wild-type mouse BMDMs

THP-1 and HT-29 cells = experiment: Cell viability, resazurin; details: THP-1 100 nM, HT-29 187.5 nM; 6 h, with or without ISD70 overnight
mouse Tlr9 = molecular target: T4, mouse Tlr9 (Mus musculus, UniProt Q9EQU3); experiment: ODN 1826-driven TNF-α in immortalised mouse BMDMs; assay type: cell-based; details: iBMDMs; 250-500 nM ASO; ODN 1826 500 nM overnight; listed as C2-Mutl
T4 construct: endogenous in cells; host or cells: immortalised wild-type mouse BMDMs
T4 sequence (Q9EQU3 26-1032): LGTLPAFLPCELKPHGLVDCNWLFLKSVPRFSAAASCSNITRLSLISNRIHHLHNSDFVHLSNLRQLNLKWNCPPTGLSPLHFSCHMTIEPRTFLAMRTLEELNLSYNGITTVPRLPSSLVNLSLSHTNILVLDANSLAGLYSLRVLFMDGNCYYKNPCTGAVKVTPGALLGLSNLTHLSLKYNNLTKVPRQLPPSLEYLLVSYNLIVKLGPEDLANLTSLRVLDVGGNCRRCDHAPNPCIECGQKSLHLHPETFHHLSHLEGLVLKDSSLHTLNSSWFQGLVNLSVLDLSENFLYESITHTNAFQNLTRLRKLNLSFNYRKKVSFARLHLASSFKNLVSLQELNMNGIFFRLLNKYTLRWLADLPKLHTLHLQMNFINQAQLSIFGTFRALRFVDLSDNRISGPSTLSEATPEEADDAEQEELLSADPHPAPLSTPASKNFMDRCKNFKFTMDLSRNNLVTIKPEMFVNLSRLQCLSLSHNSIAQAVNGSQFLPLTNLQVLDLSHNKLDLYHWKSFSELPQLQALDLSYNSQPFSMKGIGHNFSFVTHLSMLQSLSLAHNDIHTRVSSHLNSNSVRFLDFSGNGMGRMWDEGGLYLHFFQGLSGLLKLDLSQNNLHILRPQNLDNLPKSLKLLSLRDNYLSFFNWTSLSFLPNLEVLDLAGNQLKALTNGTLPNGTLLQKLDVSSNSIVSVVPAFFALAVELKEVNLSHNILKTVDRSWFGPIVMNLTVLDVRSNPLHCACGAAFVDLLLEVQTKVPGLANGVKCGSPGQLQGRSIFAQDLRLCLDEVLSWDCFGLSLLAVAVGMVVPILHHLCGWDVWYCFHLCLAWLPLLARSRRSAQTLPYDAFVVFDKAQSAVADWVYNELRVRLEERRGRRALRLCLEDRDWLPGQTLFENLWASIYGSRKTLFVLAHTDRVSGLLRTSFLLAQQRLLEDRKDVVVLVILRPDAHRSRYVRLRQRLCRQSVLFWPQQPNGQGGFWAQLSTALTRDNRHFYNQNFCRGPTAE

T2 sequence (Q86WV6 whole entry): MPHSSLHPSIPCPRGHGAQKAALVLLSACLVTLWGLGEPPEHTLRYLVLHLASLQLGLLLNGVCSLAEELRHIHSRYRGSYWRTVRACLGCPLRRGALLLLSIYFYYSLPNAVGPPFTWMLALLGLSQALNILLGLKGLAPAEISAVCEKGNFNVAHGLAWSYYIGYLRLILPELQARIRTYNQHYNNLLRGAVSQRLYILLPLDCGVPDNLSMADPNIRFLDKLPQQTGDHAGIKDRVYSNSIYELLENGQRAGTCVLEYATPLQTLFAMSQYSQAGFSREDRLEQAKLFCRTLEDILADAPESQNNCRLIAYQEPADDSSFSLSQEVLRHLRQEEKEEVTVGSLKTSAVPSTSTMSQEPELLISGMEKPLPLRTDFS
T3 sequence (Q9QUN7 25-784): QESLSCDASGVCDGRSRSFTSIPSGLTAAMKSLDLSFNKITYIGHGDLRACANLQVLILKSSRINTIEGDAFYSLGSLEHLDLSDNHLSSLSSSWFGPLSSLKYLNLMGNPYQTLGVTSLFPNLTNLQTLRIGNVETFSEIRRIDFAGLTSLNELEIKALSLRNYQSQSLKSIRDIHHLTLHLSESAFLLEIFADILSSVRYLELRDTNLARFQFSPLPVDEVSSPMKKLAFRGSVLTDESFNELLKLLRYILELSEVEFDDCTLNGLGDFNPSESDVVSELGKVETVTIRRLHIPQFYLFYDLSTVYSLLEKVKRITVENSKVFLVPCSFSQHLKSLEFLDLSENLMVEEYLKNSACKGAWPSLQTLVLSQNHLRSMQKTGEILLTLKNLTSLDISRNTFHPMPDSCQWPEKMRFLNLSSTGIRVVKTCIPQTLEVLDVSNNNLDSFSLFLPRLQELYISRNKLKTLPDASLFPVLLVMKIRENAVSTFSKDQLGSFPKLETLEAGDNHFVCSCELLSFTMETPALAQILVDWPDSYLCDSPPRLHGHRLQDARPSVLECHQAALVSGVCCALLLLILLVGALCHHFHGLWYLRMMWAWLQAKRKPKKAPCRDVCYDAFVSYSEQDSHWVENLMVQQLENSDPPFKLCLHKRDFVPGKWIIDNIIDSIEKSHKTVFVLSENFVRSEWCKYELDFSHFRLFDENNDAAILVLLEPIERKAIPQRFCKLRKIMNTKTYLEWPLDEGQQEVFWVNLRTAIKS
T3 sequence (Q9EPQ1 26-795): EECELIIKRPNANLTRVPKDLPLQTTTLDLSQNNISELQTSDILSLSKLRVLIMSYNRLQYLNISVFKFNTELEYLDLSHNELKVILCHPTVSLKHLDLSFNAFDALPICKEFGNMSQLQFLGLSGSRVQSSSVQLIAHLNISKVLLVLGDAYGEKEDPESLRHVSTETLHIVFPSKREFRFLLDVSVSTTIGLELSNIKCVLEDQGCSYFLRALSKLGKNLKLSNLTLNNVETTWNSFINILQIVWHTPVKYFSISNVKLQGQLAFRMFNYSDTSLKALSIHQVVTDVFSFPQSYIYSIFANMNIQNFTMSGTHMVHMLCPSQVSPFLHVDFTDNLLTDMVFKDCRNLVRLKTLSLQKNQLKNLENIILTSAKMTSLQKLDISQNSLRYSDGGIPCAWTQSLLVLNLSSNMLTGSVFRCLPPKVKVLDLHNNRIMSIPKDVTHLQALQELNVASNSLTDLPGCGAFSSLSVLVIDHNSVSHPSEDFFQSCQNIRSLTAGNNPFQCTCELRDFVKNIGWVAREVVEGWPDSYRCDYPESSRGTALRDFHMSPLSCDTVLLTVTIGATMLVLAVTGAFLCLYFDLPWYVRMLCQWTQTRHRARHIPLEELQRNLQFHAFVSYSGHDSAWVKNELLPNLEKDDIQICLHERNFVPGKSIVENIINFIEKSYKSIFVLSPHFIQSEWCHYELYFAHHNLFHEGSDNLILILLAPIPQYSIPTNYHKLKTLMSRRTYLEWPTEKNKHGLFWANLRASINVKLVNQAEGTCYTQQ

Substance | TNFα production induced by ssRNA sensing (in words) (TLR7) | IP-10 production driven by STING synthetic agonists (in words) (STING) | TNF-α production upon PAM3CSK4 (in words) (TLR2/1) | cell viability (THP-1 and HT-29 cells) | inhibition of mouse TLR9 sensing of CpG ODN (TNF-α; in words) (mouse Tlr9)
mG*mC*mG*mG*mU*A*T*C*C*A*T*G*T*C*C*mC*mA*mG*mG*mC (mG*mC*mG*mG*mU*dA*dT*dC*dC*dA*dT*dG*dT*dC*dC*mC*mA*mG*mG*mC; antisense) [C2-Mut1] | significantly reduced TNFα production | did not significantly affect IP-10 production | did not impact production of TNF-α | did not significantly impact cell viability | significantly decreased sensing of the CpG ODN 1826; also recorded: very potent inhibitor of mouse TLR9
mG*mG*mU*A*T*C*C*C*C*C*C*C*C*C*C*C*C*C*C*C (GGUATCCCCCCCCCCCCCCC; antisense; sugars from the 5' end m3 d17, all phosphorothioate, methylation of C not given here) [[C2]Mut1-dC] | significantly reduced TNFα production | – | – | – | –
